The text below walks through data of ChEMBL document CHEMBL1156106 (J Med Chem, 2009).

Data set [1] relates to Rattus norvegicus. In words: Effect on behavioural activity in rat assessed as cocaine-induced lever response at 10 mg/kg, ip pretreated with cocaine for 75 mins by drug-discrimination studies. The class given is functional. To be noted: route intraperitoneal.
Data set [2] concerns Rattus norvegicus. The data set can be described thus: Effect on behavioural activity in rat assessed as cocaine-induced lever response at 25 mg/kg, ip pretreated with cocaine for 75 mins by drug-discrimination studies. The class given is functional. To be noted: route intraperitoneal.
Data set [3] has as its system Rattus norvegicus. In words: Effect on behavioural activity in rat assessed as cocaine-induced lever response at 50 mg/kg, ip pretreated with cocaine for 75 mins by drug-discrimination studies. Type of data set: functional. To be noted: route intraperitoneal.
Data set [4] deals with Rattus norvegicus. The data set can be described thus: Effect on behavioural activity in rat assessed as cocaine-induced lever response at 100 mg/kg, ip pretreated with cocaine for 75 mins by drug-discrimination studies. Type of data set: functional. To be noted: route intraperitoneal.
Data set [5] has as its system Rattus norvegicus. In words: Effect on behavioural activity in rat assessed as cocaine-induced lever response at 10 mg/kg, po pretreated with cocaine for 45 mins by drug-discrimination studies. Type of data set: functional.
In data set [6] the test system is Rattus norvegicus. In words: Effect on behavioural activity in rat assessed as cocaine-induced lever response at 10 mg/kg, po pretreated with cocaine for 90 mins by drug-discrimination studies. The class given is functional.
The subject of data set [7] is Rattus norvegicus. In words: Effect on behavioural activity in rat assessed as cocaine-induced lever response at 10 mg/kg, po pretreated with cocaine for 180 mins by drug-discrimination studies. Type of data set: functional.
For data set [8], the system named is Rattus norvegicus. In words: Effect on behavioural activity in rat assessed as cocaine-induced lever response at 25 mg/kg, po pretreated with cocaine for 45 mins by drug-discrimination studies. Type of data set: functional.
Data set [9] concerns Rattus norvegicus. In words: Effect on behavioural activity in rat assessed as cocaine-induced lever response at 25 mg/kg, po pretreated with cocaine for 90 mins by drug-discrimination studies. The class given is functional.
Data set [10] relates to Rattus norvegicus. In words: Effect on behavioural activity in rat assessed as cocaine-induced lever response at 25 mg/kg, po pretreated with cocaine for 180 mins by drug-discrimination studies. Type of data set: functional.
Data set [11] relates to Rattus norvegicus. In words: Effect on behavioural activity in rat assessed as cocaine-induced lever response at 25 mg/kg, po pretreated with cocaine for 360 mins by drug-discrimination studies. Type of data set: functional.
Data set [12] has as its system Rattus norvegicus. In words: Effect on behavioural activity in rat assessed as cocaine-induced lever response at 50 mg/kg, po pretreated with cocaine for 45 mins by drug-discrimination studies. Type of data set: functional.
Data set [13] relates to Rattus norvegicus. In words: Effect on behavioural activity in rat assessed as cocaine-induced lever response at 50 mg/kg, po pretreated with cocaine for 90 mins by drug-discrimination studies. Type of data set: functional.
Data set [14] deals with Rattus norvegicus. The data set can be described thus: Effect on behavioural activity in rat assessed as cocaine-induced lever response at 50 mg/kg, po pretreated with cocaine for 180 mins by drug-discrimination studies. Type of data set: functional.
In data set [15] the test system is Rattus norvegicus. The data set can be described thus: Effect on behavioural activity in rat assessed as cocaine-induced lever response at 50 mg/kg, po pretreated with cocaine for 360 mins by drug-discrimination studies. The class given is functional.
The target in data set [16] is T1, Sodium-dependent serotonin transporter (Homo sapiens, UniProt P31645). The data set can be described thus: biochemical. The class given is cell-based, HEK293.
In data set [17] the test system is Mus musculus. The data set can be described thus: Antidepressant activity in ip dosed mouse assessed as stimulation of locomotor activity. The class given is functional.
In data set [18] the test system is Mus musculus. The data set can be described thus: Antidepressant activity in ip dosed mouse assessed as stimulation of locomotor activity relative to cocaine. The class given is functional.
Data set [19] deals with Mus musculus. In words: Antidepressant activity in ip dosed mouse assessed as time to reach peak stimulation of locomotor activity. The class given is functional.
For data set [20], the system named is Mus musculus. The data set can be described thus: Antidepressant activity in ip dosed mouse assessed as duration of locomotor activity. The class given is functional.
The test system of data set [21] is Rattus norvegicus. In words: Effect on behavioural activity in po dosed rat assessed as cocaine-induced lever response pretreated with cocaine by drug-discrimination studies. Type of data set: functional.
The test system of data set [22] is Rattus norvegicus. The data set can be described thus: Effect on behavioural activity in rat assessed as cocaine-induced lever response at 10 mg/kg, ip pretreated with cocaine for 335 mins by drug-discrimination studies. The class given is functional. To be noted: route intraperitoneal.
The subject of data set [23] is Rattus norvegicus. In words: Effect on behavioural activity in rat assessed as cocaine-induced lever response at 25 mg/kg, ip pretreated with cocaine for 335 mins by drug-discrimination studies. The class given is functional. To be noted: route intraperitoneal.
In data set [24] the test system is Rattus norvegicus. In words: Effect on behavioural activity in rat assessed as cocaine-induced lever response at 50 mg/kg, ip pretreated with cocaine for 335 mins by drug-discrimination studies. The class given is functional. The settings on record: route intraperitoneal.
Data set [25] relates to Rattus norvegicus. In words: Effect on behavioural activity in rat assessed as cocaine-induced lever response at 100 mg/kg, ip pretreated with cocaine for 335 mins by drug-discrimination studies. Type of data set: functional. The settings on record: route intraperitoneal.
Data set [26] relates to Rattus norvegicus. In words: Effect on behavioural activity in rat assessed as cocaine-induced lever response at 5 mg/kg, ip pretreated with cocaine for 60 mins by drug-discrimination studies. The class given is functional. The settings on record: route intraperitoneal.
The test system of data set [27] is Rattus norvegicus. The data set can be described thus: Effect on behavioural activity in rat assessed as cocaine-induced lever response at 10 mg/kg, ip pretreated with cocaine for 60 mins by drug-discrimination studies. The settings on record: route intraperitoneal. Type of data set: functional.
Data set [28] deals with Rattus norvegicus. In words: Effect on behavioural activity in rat assessed as cocaine-induced lever response at 25 mg/kg, ip pretreated with cocaine for 60 mins by drug-discrimination studies. The settings on record: route intraperitoneal. The class given is functional.
The target of data set [29] is T2, Sodium-dependent dopamine transporter (Homo sapiens, UniProt Q01959). In words: Displacement of [125I]RTI55 from cloned human DAT expressed in HEK293 cells. The class given is cell-based.
Data set [30] concerns the target T3, Sodium-dependent noradrenaline transporter (Homo sapiens, UniProt P23975). The data set can be described thus: Displacement of [125I]RTI55 from cloned human NET expressed in HEK293 cells. Type of data set: cell-based. For orientation: In a radioligand displacement assay an active substance lowers the binding of a labelled ligand.
Data set [31] deals with T2, Sodium-dependent dopamine transporter. The data set can be described thus: Inhibition of [3H]dopamine reuptake at human DAT expressed in HEK293 cells. The class given is cell-based.
Data set [32] deals with T1, Sodium-dependent serotonin transporter. In words: Inhibition of [3H]serotonin reuptake at human SERT expressed in HEK293 cells. The class given is cell-based.
Data set [33] deals with T3, Sodium-dependent noradrenaline transporter. The data set can be described thus: Inhibition of [3H]norepinephrine reuptake at human NET expressed in HEK293 cells. Type of data set: cell-based.
Data set [34] concerns Rattus norvegicus. The data set can be described thus: Toxicity in rat assessed as adverse effects at 50 mg/kg, ip. Type of data set: organism-based. Details: dose 50 mg/kg, route intraperitoneal. The settings on record: in vivo.

T1 sequence (P31645 whole entry): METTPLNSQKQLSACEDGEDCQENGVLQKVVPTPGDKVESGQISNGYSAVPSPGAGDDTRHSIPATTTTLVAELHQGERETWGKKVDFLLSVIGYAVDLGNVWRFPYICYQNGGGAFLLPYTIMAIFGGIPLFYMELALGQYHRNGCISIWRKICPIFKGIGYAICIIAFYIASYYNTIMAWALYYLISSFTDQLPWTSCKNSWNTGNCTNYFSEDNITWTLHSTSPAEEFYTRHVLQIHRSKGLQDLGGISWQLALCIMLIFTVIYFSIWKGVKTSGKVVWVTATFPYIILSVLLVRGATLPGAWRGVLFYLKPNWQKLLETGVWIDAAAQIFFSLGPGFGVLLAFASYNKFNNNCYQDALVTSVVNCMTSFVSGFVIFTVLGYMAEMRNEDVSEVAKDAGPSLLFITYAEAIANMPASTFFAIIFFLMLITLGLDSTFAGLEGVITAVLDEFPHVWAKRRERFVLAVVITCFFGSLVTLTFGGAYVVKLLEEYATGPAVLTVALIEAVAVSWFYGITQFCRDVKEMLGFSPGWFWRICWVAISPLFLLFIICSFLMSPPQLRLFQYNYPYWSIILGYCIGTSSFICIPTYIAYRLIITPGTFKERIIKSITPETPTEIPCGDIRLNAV
T2 sequence (Q01959 whole entry): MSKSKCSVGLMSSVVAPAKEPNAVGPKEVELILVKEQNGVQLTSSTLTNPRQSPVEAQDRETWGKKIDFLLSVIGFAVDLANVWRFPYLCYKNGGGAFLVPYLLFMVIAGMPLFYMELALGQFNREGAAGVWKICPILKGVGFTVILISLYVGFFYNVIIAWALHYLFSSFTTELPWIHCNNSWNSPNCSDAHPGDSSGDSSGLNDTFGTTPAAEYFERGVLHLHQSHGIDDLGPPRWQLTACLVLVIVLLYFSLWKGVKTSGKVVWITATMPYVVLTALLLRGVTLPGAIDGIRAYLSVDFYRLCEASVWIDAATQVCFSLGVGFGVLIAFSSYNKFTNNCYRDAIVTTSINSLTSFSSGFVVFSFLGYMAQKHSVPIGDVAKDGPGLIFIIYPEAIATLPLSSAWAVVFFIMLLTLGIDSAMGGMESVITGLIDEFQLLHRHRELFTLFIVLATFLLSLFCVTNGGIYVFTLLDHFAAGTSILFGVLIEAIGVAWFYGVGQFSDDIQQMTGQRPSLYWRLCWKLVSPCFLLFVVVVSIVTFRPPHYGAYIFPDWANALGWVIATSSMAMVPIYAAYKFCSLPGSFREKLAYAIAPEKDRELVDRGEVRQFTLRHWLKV
T3 sequence (P23975 whole entry): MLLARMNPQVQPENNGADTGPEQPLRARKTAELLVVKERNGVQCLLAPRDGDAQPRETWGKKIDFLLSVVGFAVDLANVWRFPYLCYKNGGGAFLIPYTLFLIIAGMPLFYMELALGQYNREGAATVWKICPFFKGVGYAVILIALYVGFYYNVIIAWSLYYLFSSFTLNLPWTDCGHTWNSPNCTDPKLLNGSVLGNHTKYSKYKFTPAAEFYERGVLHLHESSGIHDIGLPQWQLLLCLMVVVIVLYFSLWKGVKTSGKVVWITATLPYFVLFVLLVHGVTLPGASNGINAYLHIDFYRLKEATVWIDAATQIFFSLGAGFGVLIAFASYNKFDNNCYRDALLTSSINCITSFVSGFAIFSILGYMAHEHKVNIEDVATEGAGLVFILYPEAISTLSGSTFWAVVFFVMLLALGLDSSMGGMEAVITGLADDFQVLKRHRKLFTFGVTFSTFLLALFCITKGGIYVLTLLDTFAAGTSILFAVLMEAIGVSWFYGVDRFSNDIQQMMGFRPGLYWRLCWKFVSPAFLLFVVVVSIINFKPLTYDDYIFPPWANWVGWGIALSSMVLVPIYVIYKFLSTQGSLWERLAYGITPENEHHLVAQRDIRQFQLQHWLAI

Consider `CCCCCCC(NC(C)(C)C)C(=O)c1cccc(Cl)c1` (stereo not drawn), for which the Activity amounted to 0% in the data set with Rattus norvegicus [1]; 48.5% in the data set with Rattus norvegicus [2]; 49.9% in the data set with Rattus norvegicus [3]; 67.2% in the data set with Rattus norvegicus [4]; 0% in the data set with Rattus norvegicus [5]; 0% in the data set on Rattus norvegicus [6]. For the same compound, the Activity with Rattus norvegicus [7] was found to be 0%; in the data set with Rattus norvegicus [8] it was 0%; with Rattus norvegicus [9] it was 0%; in the data set on Rattus norvegicus [10], 0%; in the data set on Rattus norvegicus [11] it was 0%; in the data set with Rattus norvegicus [12] it was 83%. In addition, the Activity in the data set on Rattus norvegicus [13] is reported as 17%; in the data set with Rattus norvegicus [14] it was 25%; with Rattus norvegicus [15], 0%; in the data set with Mus musculus [18] it was 94%. The Ki (as a rule, the equilibrium dissociation constant of an inhibitor or competing ligand from its target) in data set [16] is above 10 µM. Also, the ED50 (usually the midpoint of the dose-response relation) came to 5.6 mg/kg with Mus musculus [17] and 46.9 mg/kg in the data set with Rattus norvegicus [21]. Besides, in the data set with Mus musculus [19], the “Time to peak locomotor stimulation” value was 110 min. In the data set with Mus musculus [20], the Time turned out to be 130 min.

As to `CC(C(=O)c1cccc(Cl)c1)N1CCCCC1` (stereo not drawn), the Activity in the data set on Rattus norvegicus [22] is reported as 7%; in the data set with Rattus norvegicus [23], 16.5%; in the data set with Rattus norvegicus [24], 32.7%; with Rattus norvegicus [25], 33.7%; with Mus musculus [18], 45%. Also, the ED50 in the data set on Mus musculus [17] turned out to be 34.7 mg/kg. The “Time to peak locomotor stimulation” value in the data set with Mus musculus [19] was 320 min. Besides, the Time in the data set on Mus musculus [20] was 30 min.

Take `CC(C)(C)NC(CCC1CCCCC1)C(=O)c1cccc(Cl)c1` (stereo not drawn): the Activity in the data set on Rattus norvegicus [26] is 0.2%; in the data set with Rattus norvegicus [27] it was 0.7%; with Rattus norvegicus [28], 69.6%; in the data set with Mus musculus [18] it was 33%; in the data set on Rattus norvegicus [34], “Toxic”. The values for the Ki in data set [29], in [16] and in data set [30] were 1.7 µM, 6.2 µM and 3.8 µM, respectively. Besides, the IC50 in data set [31], in data set [32] and in data set [33] was above 10 µM throughout. Further, the median effective dose (ED50) in the data set on Mus musculus [17] was determined as 14.1 mg/kg. The “Time to peak locomotor stimulation” value with Mus musculus [19] was found to be 60 min. The Time in the data set on Mus musculus [20] is recorded as 160 min.
